ChEMBL document CHEMBL1121622, “Urinary metabolites of timolol from humans and laboratory animals. Syntheses and beta-adrenergic blocking activities” (1980)

Key:
Settings in all cases: Canis lupus familiaris
Canis familiaris [1] = assay: Beta-adrenergic blocking activity in anesthetized dog, by the inhibition of isoproterenol -induced bronchodilatation after iv administration; format: functional
Canis familiaris [2] = assay: Beta-adrenergic blocking activity in anesthetized dog, by the inhibition of isoproterenol -induced hypotension after iv administration; format: functional
Canis familiaris [3] = assay: Beta-adrenergic blocking activity in anesthetized dog, by the inhibition of isoproterenol -induced tachycardia after iv administration; format: functional
Canis familiaris [4] = assay: Beta-adrenergic blocking activity in anesthetized dog, by the inhibition of isoproterenol -induced bronchodilatation after iv administration; No effect at dose up to 1 to 3 mg/kg iv; format: functional, organism-based
Canis familiaris [5] = assay: Beta-adrenergic blocking activity in anesthetized dog, by the inhibition of isoproterenol -induced hypotension after iv administration; No effect at dose up to 1 to 3 mg/kg iv; format: functional, organism-based
Canis familiaris [6] = assay: Beta-adrenergic blocking activity in anesthetized dog, by the inhibition of isoproterenol -induced tachycardia after iv administration; No effect at dose up to 1 to 3 mg/kg iv; format: functional, organism-based
Canis familiaris [7] = assay: Beta-adrenergic blocking activity in anesthetized dog, by the inhibition of isoproterenol -induced bronchodilatation after iv administration; No effect at dose up to 1 to 3 mg/kg; format: functional, organism-based

| SMILES | ED50 (Canis familiaris [1]) | ED50 (Canis familiaris [2]) | ED50 (Canis familiaris [3]) | ED50 (Canis familiaris [4]) | ED50 (Canis familiaris [5]) | ED50 (Canis familiaris [6]) | ED50 (Canis familiaris [7]) |
| --- | --- | --- | --- | --- | --- | --- | --- |
| CC(C)(C)NCC(O)COc1nsnc1NCCO (configuration not stated) | 5.4 µg/kg | 19.9 µg/kg | 38.1 µg/kg |  |  |  |  |
| CC(C)(C)NC[C@H](O)COc1nsnc1N1CCOCC1 [TIMOLOL] | 0.9 µg/kg | 2.8 µg/kg | 5.5 µg/kg |  |  |  |  |
| O=C(O)C(O)COc1nsnc1N1CCOCC1 (configuration not stated) |  |  |  | No effect | No effect | No effect |  |
| CC(C)(C)NCC(O)COc1nsnc1N(CCO)CC(=O)O (configuration not stated) |  |  |  |  | No effect | No effect | No effect |
